Laboratory results from publication PMC5495782, “Designed α-sheet peptides suppress amyloid formation in Staphylococcus aureus biofilms” (NPJ Biofilms and Microbiomes, 2017).
“Also recorded” adds a separate entry of the source. Where a SMILES comes first, the peptide text is derived from it. [ ]: non-standard residue; d: D form.

Tests used:
[1] = system: S. aureus biofilm; assay: Crystal Violet staining of S. aureus biofilm (24 h batch growth); format: cell-based, Staphylococcus aureus; conditions: 24 h batch growth in microtiter plates; 0.5% w/v Crystal Violet, absorbance at 550 nm; strain not stated; peptide 80 μM unless otherwise noted
Method: We employed two S. aureus strains—SH1000 WT, a rsbU ^+ laboratory strain,[27] and MN8, a clinical strain isolated from the human urogenital tract[28] (Supplementary Table S2). First we confirmed that the cells formed biofilms by batch growth of the bacteria in microtiter plates through staining with Crystal Violet dye after 24 h. Application of our AP90 α-sheet design led to a 54% reduction in biofilm. As crystal violet is a crude measure of the extent of biofilm formation, we assessed amyloid fibril formation in the biofilms by adapting the conventional Thioflavin T (ThT) amyloid fibril assay for use in live cells. After 24 h of batch growth in microtiter plates, the biofilms were washed and incubated with ThT, and the resulting fluorescence signals served as a proxy for the extent of fibril formation in the EM (Fig. 1a). Next, we utilized this assay to test the α-sheet inhibitor designs and control peptides described above (sequences provided in Supplementary Table S1). […]
ThT, an established fluorescent label for amyloid fibrils,[43] was then added to each well at a concentration of 22 μM and biofilms were incubated statically for 4 h at room temperature. […] Fluorescence measurements were corrected by subtracting the background intensity of identical samples without ThT (in the case of the biofilms) or PSMα1 (for the in vitro measurements). […]

[2] = system: S. aureus MN8 biofilm amyloid; assay: ThT fluorescence assay of amyloid in MN8 biofilms; format: cell-based, Staphylococcus aureus MN8; conditions: 24 h
Method: (§1) Fig. 1 Screening of designed peptides for inhibition of amyloid formation in S. aureus biofilms. a Schematic of protocol for testing designed α-sheet peptides in S. aureus biofilm cultures with an illustration of the main-chain structure of the AP90 α-sheet design. b A panel of designed α-sheet peptides (AP90, AP401, and AP407), as well as random coil (RC) and β-hairpin controls (β), was tested against two S. aureus strains, MN8 (hashed bars) and SH1000 WT (white bars). […] Error bars in b and c represent the standard error of the mean for experiments performed in triplicate […]
(§2) ThT, an established fluorescent label for amyloid fibrils,[43] was then added to each well at a concentration of 22 μM and biofilms were incubated statically for 4 h at room temperature. […] Plates were shaken at high speed for 1 min on a plate shaker to detach any remaining biofilm material and homogenize the samples, which were then transferred to a 96-well black-walled plate (Corning, TC-treated polystyrene) and ThT fluorescence was measured using an excitation wavelength of 438 nm and emission at 495 nm on a Perkin–Elmer Enspire plate reader (hereafter referred to as the plate reader). Fluorescence measurements were corrected by subtracting the background intensity of identical samples without ThT (in the case of the biofilms) or PSMα1 (for the in vitro measurements). […]

[3] = system: S. aureus SH1000 WT biofilm amyloid; assay: ThT fluorescence assay of amyloid in SH1000 WT biofilms; format: cell-based, Staphylococcus aureus SH1000 WT; conditions: 80 μM peptide, 24 h, 37 °C
Method: as §1, §2

[4] = system: S. aureus SH1000 WT biofilm PSM amyloid fibrils; assay: TEM of biofilms for extracellular fibril deposits; format: cell-based, Staphylococcus aureus SH1000 WT; conditions: 80 μM AP90, biofilms grown 24 h
Method: To further investigate the ability of designed peptides to inhibit PSM amyloid formation, fluorescent (mCherry) S. aureus MN8 biofilms were grown in culture plates with glass bottom wells with or without α-sheet inhibitors. After 24 h at 37 °C the biofilms were gently rinsed with pipetted saline to remove unattached biomass and the remaining attached cells were fixed and imaged. A robust biofilm formed on the glass at the bottom of each well in LB medium alone (Fig. 2a); in contrast, there was significant disruption of the biofilm in the presence of the α-sheet compounds. […] Quantification of the images is presented in Supplementary Fig. S2. […] Addition of anti-α-sheet peptides triggered a significant reduction in PSM amyloid formation as measured by ThT fluorescence, which presumably weakened the S. aureus biofilms and their attachments by reducing the PSM amyloid fibril content of the EM. […]
Fig. 2 S. aureus biofilm structures become less robust when grown in the presence of designed peptide inhibitors. a S. aureus MN8 + mCherry biofilms were grown on glass substrates for 24 h and then cells were washed and fixed. […] For quantification of the images see Supplementary Fig. S2. b In S. aureus SH1000 WT biofilms grown in regular LB medium, PSM amyloid fibrils were visible as deposits in spaces between cells (left).
Images were analyzed using Gwyddion software (Czech Metrology Institute).

[5] = system: synthetic PSMα1; assay: PSMα1 fibrillization assay with added inhibitors (ThT), water; format: biochemical, Staphylococcus aureus; conditions: 30 μM PSMα1, inhibitor at 4:1 molar ratio, 0.34% v/v DMSO in ddH2O, pH 5, 37 °C, ThT 22 μM; SEM of 3–6 replicates; vs peptide-free control
Excerpt: (§3) Two different solvent conditions were used (0.34% DMSO in water, blue bars; LB medium + 0.34% DMSO, red bars) and aggregation was monitored by ThT fluorescence. Inhibition values for each peptide are reported as a percentage of the peptide-free control samples (0% inhibition). […] Fluorescence values in NaCl solution were quite high, so its curve is shown as an inset.

[6] = system: synthetic PSMα1; assay: PSMα1 fibrillization assay with added inhibitors (ThT), LB medium; format: biochemical, Staphylococcus aureus; conditions: LB medium + 0.34% DMSO, 37 °C
Excerpt: as §3

[7] = target: T1, PSMα1 (Staphylococcus aureus, UniProt A9JX05); format: binding; conditions: fresh (0 h), pre-incubated (48 h) and fibrillar (165 h) PSMα1; 2 h, 25 °C; GndHCl elution; NanoOrange fluorescence; six samples
T1 construct: synthetic PSMα1 (f[…], where f denotes formylation, Ontores Biotechnologies); purchased Ontores Biotechnologies; host or cells: chemical synthesis
Method: To further probe the interactions between PSMα1 and the designed α-sheet peptides, we immobilized AP90 on agarose beads and applied solutions of either (a) fresh (completely solubilized), (b) pre-incubated, (allowed to aggregate as in Fig. 6a for 48 h corresponding to α-sheet oligomer species) or (c) fibrillar PSMα1. The bead mixtures were contained within a micro-spin column, so the system was treated as a packed bed reactor and a series of phosphate buffered saline (PBS) washes was used to remove unbound material. The PSMα1 content of each wash was measured with a fluorescence-based assay. PSMα1 bound to immobilized AP90 was eluted with high guanidinium hydrochloride (GndHCl).
Meanwhile, PSMα1 samples were prepared as above (see “PSM fibrillization assay”) and incubated at 37 °C. […] FT and the washes (W1-W7) were analyzed with the NanoOrange® Protein Quantitation Kit (Thermo Fisher Scientific). […] This approach was necessary because elution of bound PSMα1 with GndHCl obscures protein quantification, and unfortunately, the inability to quantify the GndHCl bound fractions prevents confirmation of the mass balance. […]
were alternated with PBS washes (W8-W13). All eluents were then analyzed with the
NanoOrange® Protein Quantitation Kit and fluorescence was used as an indicator of
PSMα1 content in each eluent. Fluorescence measurements were normalized by the […]

[8] = target: T1, PSMα1; assay: Biolayer interferometry, AP90 on sensor tip, PSMα1 in solution; format: binding; conditions: PSMα1 α-sheet-rich (~48 h) vs α-helix-rich (~0 h) or β-sheet-rich (~150 h)
Method: The binding was explored further using biolayer interferometry, which analyzes interference patterns based on adsorption of samples to a biosensor tip.
All biolayer interferometry experiments were performed on a BLItz biosensor system (ForteBio, Pall) using aminopropylsilane (APS) sensors. Sensors were hydrated in ddH2O + 22 μM ThT for 10 min prior to use; ThT was included to mirror the conditions of the corresponding aggregation curves.

[9] = CD spectroscopy of designed and control peptides; format: physicochemical; conditions: 100 µM (RC 30 µM), phosphate buffer (β and AP193: acetate buffer), room temperature
Method: AP407 is a variant of AP90 with a disulfide bond. […] An unstructured random coil peptide (RC) and a β-sheet hairpin (β) are used as structural controls.[25], [26]
CD spectra of RC, β, AP90, AP401, AP407, and AP193. Peptides were
dissolved to a concentration of 100 µM (except for RC, which was 30 µM) in phosphate
buffer (except for β and AP193, which were in acetate buffer) and spectra were
acquired at room temperature. […] MRE = mean residue ellipticity.

[10] = ref [25]; cited from earlier work
Excerpt: In addition, the structural properties of the peptide provide a benchmark, or spectroscopic signature, for α-sheet structure, which can be used to interpret spectra of amyloid species. The main α-sheet design used here is AP90 (Alternating Peptide #90, referred to as α1 previously, [26]), but we also tested several other designs (Supp ...

T1 sequence (A9JX05 whole entry, looked up): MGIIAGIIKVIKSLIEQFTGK

CSCC[C@H](NC(=O)[C@@H](CCCCN)NC(=O)[C@H](CC(C)C)NC(=O)[C@@H](CC(N)=O)NC(=O)[C@H](CCSC)NC(=O)[C@H](NC(=O)[C@H](Cc1c[nH]c2ccccc12)NC(=O)CNC(=O)[C@H](CO)NC(=O)[C@H](Cc1ccc(O)cc1)NC(=O)[C@H](CCC(=O)O)NC(=O)[C@H](CC(N)=O)NC(=O)[C@H](CCSC)NC(=O)[C@@H](Cc1c[nH]c2ccccc12)NC(=O)[C@H](CO)NC(=O)[C@@H](CC(C)C)NC(=O)[C@H](CC(N)=O)NC(=O)[C@@H](CCSC)NC(=O)[C@H](CCC(=O)O)NC(=O)CNC(=O)[C@H](CCCNC(=N)N)NC(C)=O)[C@H](C)O)C(=O)NCC(=O)N[C@@H](CCCNC(=N)N)C(N)=O [AP90] (Ac-RGE[dM]N[dL]S[dW]MNEYSGW[dT]M[dN]L[dK]MGR-NH2)
reduction in biofilm (Crystal Violet) [1]: 54% | effect on amyloid fibril formation (ThT), in words ([2]; 80 μM peptide, 37 °C, effect particularly for the MN8 clinical isolate): significant reduction in amyloid fibril formation | dose-response of biofilm amyloid content (ThT), in words ([2]; increasing concentrations of AP90 in culture medium): fibril formation decreased in a dose-dependent manner; also recorded: significant decrease in EM amyloid content as the concentration of AP90 is increased | effect on amyloid fibril formation (ThT), in words [3]: significant reduction in amyloid fibril formation | reduction of amyloid fibril formation (ThT) ([3]; LB Lennox, ThT 22 μM, ex 438 / em 495 nm, vs peptide-free control, experiments in triplicate): ~ 30% | extracellular PSM fibril deposits by TEM [4]: amyloid fibrils could not be found; also recorded: no extracellular fibril deposits were observed; also recorded: no amyloid fibrils were visible | inhibition of PSMα1 amyloid formation [5]: 81 ± 5% | inhibition of PSMα1 fibril formation ([6]; 30 μM PSMα1, 1:4 PSMα1:inhibitor, ThT 22 μM, SEM of 3–6 replicates, vs peptide-free control): 73 ± 11% | effect on PSMα1 fibril formation, in words ([6]; 30 μM PSMα1, 1:4 PSMα1:peptide): inhibited fibril formation to nearly the same extent as in water; also recorded: inhibition by AP90 persisted | binding of PSMα1 samples to immobilized AP90 [7]: more of the oligomer sample bound to the column than fresh or fibrillar material | binding preference by KD, in words [8]: preferential binding between AP90 and α-sheet-rich PSMα1 (~48 h) | CD spectrum (secondary structure) [9]: featureless spectrum, except for negative ellipticity in the so-called random coil region around 195–200 nm | secondary structure by CD, FTIR and 2D NMR [10]: does not adopt conventional secondary structure
